Measurements published in article PMC7313537 (PLoS ONE, 2020).

Experiments:
[1] = test system: MM1.S; experiment: Cell viability assay (CellTiter-Glo); assay type: cell-based; details: Homo sapiens, Myeloma, lacking FGFR alterations
[2] = target: EPHA2 (Homo sapiens, UniProt P29317); experiment: Enzyme selectivity panel; assay type: biochemical; details: 1 mM ATP
Experimental: (§2) The kinase assays were carried out at room temperature in HEPES 50 mM, pH 7.0, NaN3 0.02%, BSA 0.01%, Orthovanadate 0.1 mM, DTT 1 mM, MgCl2 10 mM in a final volume of 10 µL. Test compounds were transferred to the plate wells by ECHO liquid handler (Labcyte, San Jose, CA) with 0.5% dimethyl sulfoxide (DMSO) in the final assay. Peptide/kinase mixtures were diluted in the appropriate enzymatic buffer and 5µL of the mixture was added to a 384-well small volume black plate. Reactions were initiated by the addition of 5 µL ATP in reaction buffer, the final reaction mixture consisted of 500 nM peptide substrate, 1 mM ATP, and appropriate amount of specific kinase. […] The plates were then sealed and centrifuged at 1800 rpm for 2 minutes. […] Half maximal inhibitory concentration (IC50) determination was performed by fitting the curve of percent control activity versus the log of the compound concentration using the GraphPad Prism 6.0 software.

[3] = target: TGFBR1 (Homo sapiens, UniProt P36897); experiment: Enzyme selectivity panel; assay type: biochemical; details: 1 mM ATP
Chain of TGFBR1 (P36897 34-503, species assumed): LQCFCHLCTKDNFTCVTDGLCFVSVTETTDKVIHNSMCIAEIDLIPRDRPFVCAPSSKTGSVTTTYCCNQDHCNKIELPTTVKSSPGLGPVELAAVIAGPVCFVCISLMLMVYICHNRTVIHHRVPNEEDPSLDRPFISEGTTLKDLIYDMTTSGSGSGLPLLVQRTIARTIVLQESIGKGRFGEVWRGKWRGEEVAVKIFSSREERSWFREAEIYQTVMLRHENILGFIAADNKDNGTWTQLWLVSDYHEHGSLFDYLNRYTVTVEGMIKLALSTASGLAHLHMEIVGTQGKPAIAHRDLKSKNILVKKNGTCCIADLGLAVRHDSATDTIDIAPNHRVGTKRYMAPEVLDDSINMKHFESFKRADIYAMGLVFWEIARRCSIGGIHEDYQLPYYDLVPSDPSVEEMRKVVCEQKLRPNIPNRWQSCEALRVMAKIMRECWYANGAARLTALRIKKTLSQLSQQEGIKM
Experimental: as §2

[4] = target: IGF1R (Homo sapiens, UniProt P08069); experiment: Enzyme selectivity panel; assay type: biochemical; details: 1 mM ATP
Chain of IGF1R (P08069 31-1367, species assumed): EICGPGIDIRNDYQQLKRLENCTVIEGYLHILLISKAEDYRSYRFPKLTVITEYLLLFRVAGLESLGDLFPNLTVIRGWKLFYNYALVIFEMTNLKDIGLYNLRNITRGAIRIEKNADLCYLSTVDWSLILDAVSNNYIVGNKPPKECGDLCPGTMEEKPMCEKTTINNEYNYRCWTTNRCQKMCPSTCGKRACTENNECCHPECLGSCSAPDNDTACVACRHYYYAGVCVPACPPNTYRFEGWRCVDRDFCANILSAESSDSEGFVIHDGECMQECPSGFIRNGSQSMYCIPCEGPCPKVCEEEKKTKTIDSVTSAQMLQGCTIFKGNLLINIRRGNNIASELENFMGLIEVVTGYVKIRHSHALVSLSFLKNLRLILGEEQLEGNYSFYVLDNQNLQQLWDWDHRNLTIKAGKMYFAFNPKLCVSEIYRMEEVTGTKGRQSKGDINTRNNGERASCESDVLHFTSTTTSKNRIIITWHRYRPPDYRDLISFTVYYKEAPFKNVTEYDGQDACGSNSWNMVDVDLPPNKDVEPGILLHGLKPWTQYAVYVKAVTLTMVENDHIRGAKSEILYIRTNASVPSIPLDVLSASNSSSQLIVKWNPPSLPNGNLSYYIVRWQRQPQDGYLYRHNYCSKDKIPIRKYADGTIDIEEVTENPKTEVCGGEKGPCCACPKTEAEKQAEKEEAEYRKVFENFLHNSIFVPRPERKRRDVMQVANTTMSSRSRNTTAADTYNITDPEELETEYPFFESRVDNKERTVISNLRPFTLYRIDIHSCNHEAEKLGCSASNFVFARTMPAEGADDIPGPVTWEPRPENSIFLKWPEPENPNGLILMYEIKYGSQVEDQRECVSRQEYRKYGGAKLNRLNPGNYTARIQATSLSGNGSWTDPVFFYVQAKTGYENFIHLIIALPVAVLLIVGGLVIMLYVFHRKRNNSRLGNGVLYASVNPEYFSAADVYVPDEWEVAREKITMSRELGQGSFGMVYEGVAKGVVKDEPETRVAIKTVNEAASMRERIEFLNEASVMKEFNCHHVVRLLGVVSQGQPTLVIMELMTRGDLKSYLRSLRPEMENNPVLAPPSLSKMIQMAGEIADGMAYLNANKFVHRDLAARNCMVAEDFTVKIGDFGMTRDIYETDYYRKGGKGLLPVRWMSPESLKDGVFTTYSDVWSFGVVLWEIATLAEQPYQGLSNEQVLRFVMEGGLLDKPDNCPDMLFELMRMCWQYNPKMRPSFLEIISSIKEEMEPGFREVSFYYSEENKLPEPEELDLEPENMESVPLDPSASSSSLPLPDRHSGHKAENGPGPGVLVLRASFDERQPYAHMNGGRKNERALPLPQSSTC
Experimental: as §2

[5] = test system: DMS-114 (lung cancer); experiment: Cell viability assay (CellTiter-Glo); assay type: cell-based; details: Homo sapiens, FGFR1 amplification, 72 hours, read-out: Mean GI50 ± S.D.
[6] = target: T1, DDR2 (Homo sapiens, UniProt Q16832); experiment: Enzyme selectivity panel; assay type: biochemical; details: 1 mM ATP
T1 construct: purchased In-house HTRF panel (56 kinases) and PerkinElmer (161-kinase panel)
Experimental: as §2

[7] = Pharmacokinetic analyses; assay type: in vivo, cynomolgus monkeys; details: male monkey
Experimental: The i.v. formulation in dogs and monkeys was 5% DMAC and 20% sulfobutyl ether β-cyclodextrin in saline. The oral formulation in all species was 5% DMAC in 0.5% methylcellulose aqueous solution. For rats, blood samples were collected at predose, 5 (i.v. dosing only), 15, and 30 minutes, and 1, 2, 4, 6, 8, and 24 hours. For dogs, blood samples were collected at predose, 2.5 and 5 (i.v. dosing only), 15, and 30 minutes, and 1, 2, 3, 4, 6, 8, 12, and 24 hours postdose. For monkeys, blood samples were collected at predose, 5 and 10 (i.v. dosing only), 15, and 30 minutes, and 1, 2, 3, 4, 6, 8, 12, 16, and 24 hours postdose. Collected blood samples were processed to extract plasma by centrifugation and stored at −20 °C until analysis.
The plasma was protein precipitated and the diluted supernatant was analyzed using LC/MS/MS. A standard curve was prepared in plasma from 1 to 5,000 nM and processed in the same manner as the samples. The pharmacokinetic parameters were determined using WinNonLin 6.3.

[8] = target: RPS6KB1 (Homo sapiens, UniProt P23443); experiment: Enzyme selectivity panel; assay type: biochemical; details: 1 mM ATP
Chain of RPS6KB1 (P23443 whole entry, species assumed): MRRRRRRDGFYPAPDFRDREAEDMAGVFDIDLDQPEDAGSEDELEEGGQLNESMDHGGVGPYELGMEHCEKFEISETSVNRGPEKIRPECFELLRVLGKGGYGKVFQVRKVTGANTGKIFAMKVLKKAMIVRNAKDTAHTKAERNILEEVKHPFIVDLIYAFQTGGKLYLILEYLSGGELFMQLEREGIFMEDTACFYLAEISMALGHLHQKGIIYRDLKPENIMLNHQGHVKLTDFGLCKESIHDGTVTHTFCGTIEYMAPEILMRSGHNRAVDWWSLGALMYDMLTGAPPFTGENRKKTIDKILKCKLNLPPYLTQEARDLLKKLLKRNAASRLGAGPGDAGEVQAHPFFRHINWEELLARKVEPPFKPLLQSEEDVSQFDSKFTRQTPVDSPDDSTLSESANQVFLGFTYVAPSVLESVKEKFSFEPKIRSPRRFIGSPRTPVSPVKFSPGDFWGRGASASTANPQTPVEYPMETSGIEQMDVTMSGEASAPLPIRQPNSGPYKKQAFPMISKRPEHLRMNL
Experimental: as §2

[9] = target: SYK (Homo sapiens, UniProt P43405); experiment: Enzyme selectivity panel; assay type: biochemical; details: 1 mM ATP
Experimental: as §2

[10] = target: DYRK2 (Homo sapiens, UniProt Q92630); experiment: Enzyme selectivity panel; assay type: biochemical; details: 1 mM ATP
Experimental: as §2

[11] = test system: KMS12BM; experiment: Cell viability assay (CellTiter-Glo); assay type: cell-based; details: Homo sapiens, KMS-12-BM; Myeloma; lacking FGFR alterations
[12] = target: BRAF (Homo sapiens, UniProt P15056); experiment: Enzyme selectivity panel; assay type: biochemical; details: 1 mM ATP
Experimental: as §2

[13] = target: T2, CDK3 (Homo sapiens, UniProt Q00526); experiment: Broader kinase panel (PerkinElmer); assay type: biochemical; details: 100 nM; read-out: Average Percent Inhibition
T2 construct: purchased In-house HTRF panel (56 kinases) and PerkinElmer (161-kinase panel)
From the text: (§1) […]. […] […].

[14] = target: T3, MAPKAPK3 (Homo sapiens, UniProt Q16644); experiment: Broader kinase panel (PerkinElmer); assay type: biochemical; details: 100 nM; read-out: Average Percent Inhibition
T3 construct: purchased In-house HTRF panel (56 kinases) and PerkinElmer (161-kinase panel)
From the text: as §1

[15] = target: T4, PKC-delta (Homo sapiens, UniProt Q05655); experiment: Broader kinase panel (PerkinElmer); assay type: biochemical; details: 100 nM; read-out: Average Percent Inhibition
T4 construct: purchased In-house HTRF panel (56 kinases) and PerkinElmer (161-kinase panel)
From the text: as §1

[16] = target: T5, PYK2 (Homo sapiens, UniProt Q14289); experiment: Broader kinase panel (PerkinElmer); assay type: biochemical; details: 100 nM; read-out: Average Percent Inhibition
T5 construct: purchased In-house HTRF panel (56 kinases) and PerkinElmer (161-kinase panel)
T5 sequence (Q14289 whole entry): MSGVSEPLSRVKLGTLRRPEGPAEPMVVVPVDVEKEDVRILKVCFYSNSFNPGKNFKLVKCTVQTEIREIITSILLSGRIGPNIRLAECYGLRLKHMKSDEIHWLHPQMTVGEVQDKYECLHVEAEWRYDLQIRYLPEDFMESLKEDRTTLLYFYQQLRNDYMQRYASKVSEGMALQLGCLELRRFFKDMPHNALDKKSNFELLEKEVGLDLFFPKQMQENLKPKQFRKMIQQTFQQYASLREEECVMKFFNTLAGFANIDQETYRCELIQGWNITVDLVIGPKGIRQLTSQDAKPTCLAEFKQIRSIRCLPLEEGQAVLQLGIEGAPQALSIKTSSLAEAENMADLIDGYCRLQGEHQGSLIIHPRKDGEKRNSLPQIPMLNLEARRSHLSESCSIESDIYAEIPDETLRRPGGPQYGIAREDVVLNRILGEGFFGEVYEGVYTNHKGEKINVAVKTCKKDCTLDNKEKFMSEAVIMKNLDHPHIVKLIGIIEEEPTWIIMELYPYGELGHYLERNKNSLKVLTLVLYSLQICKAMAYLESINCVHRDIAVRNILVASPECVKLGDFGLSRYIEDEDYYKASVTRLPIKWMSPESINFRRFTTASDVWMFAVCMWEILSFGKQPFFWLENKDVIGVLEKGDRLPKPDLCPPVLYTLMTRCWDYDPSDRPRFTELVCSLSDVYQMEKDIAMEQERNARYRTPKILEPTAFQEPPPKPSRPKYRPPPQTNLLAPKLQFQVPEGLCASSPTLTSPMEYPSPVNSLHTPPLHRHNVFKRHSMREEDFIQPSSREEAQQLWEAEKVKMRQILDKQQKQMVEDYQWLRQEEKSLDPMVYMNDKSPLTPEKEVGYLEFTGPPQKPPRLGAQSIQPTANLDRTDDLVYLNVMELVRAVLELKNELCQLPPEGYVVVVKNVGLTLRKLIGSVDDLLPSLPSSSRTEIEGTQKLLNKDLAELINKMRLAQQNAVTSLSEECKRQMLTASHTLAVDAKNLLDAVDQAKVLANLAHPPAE
From the text: as §1

[17] = target: T6, EPHA3 (Homo sapiens, UniProt P29320); experiment: Broader kinase panel (PerkinElmer); assay type: biochemical; details: 100 nM; read-out: Average Percent Inhibition
T6 construct: purchased In-house HTRF panel (56 kinases) and PerkinElmer (161-kinase panel)
From the text: as §1

[18] = target: T7, PIM2 (Homo sapiens, UniProt Q9P1W9); experiment: Broader kinase panel (PerkinElmer); assay type: biochemical; details: 100 nM; read-out: Average Percent Inhibition
T7 construct: purchased In-house HTRF panel (56 kinases) and PerkinElmer (161-kinase panel)
From the text: as §1

[19] = target: T8, CK1-gamma 1 (Homo sapiens, UniProt Q9HCP0); experiment: Broader kinase panel (PerkinElmer); assay type: biochemical; details: 100 nM; read-out: Average Percent Inhibition
T8 construct: purchased In-house HTRF panel (56 kinases) and PerkinElmer (161-kinase panel)
From the text: as §1

[20] = target: T9, EPHB3 (Homo sapiens, UniProt P54753); experiment: Broader kinase panel (PerkinElmer); assay type: biochemical; details: 100 nM; read-out: Average Percent Inhibition
T9 construct: purchased In-house HTRF panel (56 kinases) and PerkinElmer (161-kinase panel)
From the text: as §1

[21] = target: T10, Erk2 (Homo sapiens, UniProt P28482); experiment: Broader kinase panel (PerkinElmer); assay type: biochemical; details: 100 nM; read-out: Average Percent Inhibition
T10 construct: purchased In-house HTRF panel (56 kinases) and PerkinElmer (161-kinase panel)
T10 sequence (P28482 whole entry): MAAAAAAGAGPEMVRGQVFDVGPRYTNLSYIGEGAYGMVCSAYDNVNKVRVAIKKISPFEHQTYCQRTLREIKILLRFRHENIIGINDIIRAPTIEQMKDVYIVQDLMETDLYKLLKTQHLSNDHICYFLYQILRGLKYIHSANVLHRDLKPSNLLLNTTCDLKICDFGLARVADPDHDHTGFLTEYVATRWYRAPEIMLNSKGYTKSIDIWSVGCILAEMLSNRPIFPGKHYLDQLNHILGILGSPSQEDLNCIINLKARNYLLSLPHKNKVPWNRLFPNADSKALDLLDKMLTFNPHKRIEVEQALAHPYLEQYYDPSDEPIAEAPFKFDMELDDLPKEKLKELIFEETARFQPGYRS
From the text: as §1

[22] = target: T11, EPHA1 (Homo sapiens, UniProt P21709); experiment: Broader kinase panel (PerkinElmer); assay type: biochemical; details: 100 nM; read-out: Average Percent Inhibition
T11 construct: purchased In-house HTRF panel (56 kinases) and PerkinElmer (161-kinase panel)
From the text: as §1

[23] = target: T12, Ca MK1a (Homo sapiens, UniProt Q14012); experiment: Broader kinase panel (PerkinElmer); assay type: biochemical; details: 100 nM; read-out: Average Percent Inhibition
T12 construct: purchased In-house HTRF panel (56 kinases) and PerkinElmer (161-kinase panel)
From the text: as §1

[24] = target: T13, ITK (Homo sapiens, UniProt Q08881); experiment: Broader kinase panel (PerkinElmer); assay type: biochemical; details: 100 nM; read-out: Average Percent Inhibition
T13 construct: purchased In-house HTRF panel (56 kinases) and PerkinElmer (161-kinase panel)
T13 sequence (Q08881 whole entry): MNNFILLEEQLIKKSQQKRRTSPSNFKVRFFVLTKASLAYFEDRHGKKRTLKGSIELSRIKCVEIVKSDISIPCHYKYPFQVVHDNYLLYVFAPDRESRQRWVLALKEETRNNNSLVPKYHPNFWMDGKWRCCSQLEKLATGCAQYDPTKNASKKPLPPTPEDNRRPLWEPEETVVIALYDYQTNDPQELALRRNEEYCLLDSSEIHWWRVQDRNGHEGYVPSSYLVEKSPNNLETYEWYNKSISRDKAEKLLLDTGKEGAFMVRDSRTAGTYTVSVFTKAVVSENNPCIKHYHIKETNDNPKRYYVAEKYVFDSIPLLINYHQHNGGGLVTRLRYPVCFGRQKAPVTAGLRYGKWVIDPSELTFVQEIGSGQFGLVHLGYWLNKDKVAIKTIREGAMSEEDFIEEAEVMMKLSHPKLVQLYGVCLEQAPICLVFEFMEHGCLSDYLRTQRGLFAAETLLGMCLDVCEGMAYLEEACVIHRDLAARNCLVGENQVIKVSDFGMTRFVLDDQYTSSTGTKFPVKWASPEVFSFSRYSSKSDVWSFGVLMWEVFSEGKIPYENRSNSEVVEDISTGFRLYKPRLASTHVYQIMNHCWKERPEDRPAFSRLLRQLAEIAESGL
From the text: as §1

[25] = target: T14, ABL (Homo sapiens, UniProt P00519); experiment: Broader kinase panel (PerkinElmer); assay type: biochemical; details: 100 nM; read-out: Average Percent Inhibition
T14 construct: purchased In-house HTRF panel (56 kinases) and PerkinElmer (161-kinase panel)
From the text: as §1

[26] = target: T15, LTK (Homo sapiens, UniProt P29376); experiment: Broader kinase panel (PerkinElmer); assay type: biochemical; details: 100 nM; read-out: Average Percent Inhibition
T15 construct: purchased In-house HTRF panel (56 kinases) and PerkinElmer (161-kinase panel)
From the text: as §1

[27] = target: T16, p38-gamma (Homo sapiens, UniProt P53778); experiment: Broader kinase panel (PerkinElmer); assay type: biochemical; details: 100 nM; read-out: Average Percent Inhibition
T16 construct: purchased In-house HTRF panel (56 kinases) and PerkinElmer (161-kinase panel)
From the text: as §1

[28] = target: T17, MARK2 (Homo sapiens, UniProt Q7KZI7); experiment: Broader kinase panel (PerkinElmer); assay type: biochemical; details: 100 nM; read-out: Average Percent Inhibition
T17 construct: purchased In-house HTRF panel (56 kinases) and PerkinElmer (161-kinase panel)
From the text: as §1

[29] = target: T18, CK1g3 (CSNK1G3) (Homo sapiens, UniProt Q9Y6M4); experiment: Broader kinase panel (PerkinElmer); assay type: biochemical; details: 100 nM; read-out: Average Percent Inhibition
T18 construct: purchased In-house HTRF panel (56 kinases) and PerkinElmer (161-kinase panel)
T18 sequence (Q9Y6M4 whole entry): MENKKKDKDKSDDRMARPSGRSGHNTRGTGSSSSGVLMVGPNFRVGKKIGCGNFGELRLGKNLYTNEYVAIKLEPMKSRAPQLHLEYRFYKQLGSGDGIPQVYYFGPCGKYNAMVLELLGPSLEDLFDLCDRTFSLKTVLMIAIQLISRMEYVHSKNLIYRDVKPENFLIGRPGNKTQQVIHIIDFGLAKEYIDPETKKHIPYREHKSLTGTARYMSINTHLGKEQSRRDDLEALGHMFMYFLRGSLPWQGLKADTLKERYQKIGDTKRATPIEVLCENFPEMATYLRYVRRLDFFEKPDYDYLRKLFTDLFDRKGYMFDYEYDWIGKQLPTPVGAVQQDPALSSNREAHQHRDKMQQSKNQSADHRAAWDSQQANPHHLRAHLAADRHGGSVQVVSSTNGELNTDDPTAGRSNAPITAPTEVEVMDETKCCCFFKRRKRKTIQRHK
From the text: as §1

[30] = target: T19, p38-beta 2 (Homo sapiens, UniProt Q15759); experiment: Broader kinase panel (PerkinElmer); assay type: biochemical; details: 100 nM; read-out: Average Percent Inhibition
T19 construct: purchased In-house HTRF panel (56 kinases) and PerkinElmer (161-kinase panel)
From the text: as §1

[31] = target: T20, DCAMKL2 (Homo sapiens, UniProt Q8N568); experiment: Broader kinase panel (PerkinElmer); assay type: biochemical; details: 100 nM; read-out: Average Percent Inhibition
T20 construct: purchased In-house HTRF panel (56 kinases) and PerkinElmer (161-kinase panel)
From the text: as §1

[32] = target: T21, PKG1-beta (Homo sapiens, UniProt Q13976); experiment: Broader kinase panel (PerkinElmer); assay type: biochemical; details: 100 nM; read-out: Average Percent Inhibition
T21 construct: purchased In-house HTRF panel (56 kinases) and PerkinElmer (161-kinase panel)
From the text: as §1

[33] = target: T22, Abl (H396P) (Homo sapiens, UniProt P00519, H396P); experiment: Broader kinase panel (PerkinElmer); assay type: biochemical; details: 100 nM; read-out: Average Percent Inhibition
T22 construct: purchased In-house HTRF panel (56 kinases) and PerkinElmer (161-kinase panel)
From the text: as §1

[34] = target: T23, Mer (Homo sapiens, UniProt Q12866); experiment: Broader kinase panel (PerkinElmer); assay type: biochemical; details: 100 nM; read-out: Average Percent Inhibition
T23 construct: purchased In-house HTRF panel (56 kinases) and PerkinElmer (161-kinase panel)
From the text: as §1

[35] = target: T24, Fer (Homo sapiens, UniProt P16591); experiment: Broader kinase panel (PerkinElmer); assay type: biochemical; details: 100 nM; read-out: Average Percent Inhibition
T24 construct: purchased In-house HTRF panel (56 kinases) and PerkinElmer (161-kinase panel)
From the text: as §1

CCN1C(=O)N(c2c(F)c(OC)cc(OC)c2F)Cc2cnc3[nH]c(CN4CCOCC4)cc3c21 [INCB054828, pemigatinib]
GI50 [1]: > 5 µM
IC50 [2]: > 10 µM
IC50 [3]: > 10 µM
IC50 [4]: > 10 µM
GI50 [5]: 0.027 µM
IC50 [6]: > 10 µM
clearance ([7]; cynomolgus monkey, plasma, intravenous 1 mg/kg): 3.3 mL/min/kg
Vd ([7]; cynomolgus monkey, plasma, intravenous 1 mg/kg, read-out: Vss): 0.584 L/kg
half-life ([7]; cynomolgus monkey, plasma, intravenous 1 mg/kg, read-out: t½ (converted)): 10.3 h
bioavailability ([7]; cynomolgus monkey, plasma, oral 2 mg/kg): 29%
Hepatic ER ([7]; intravenous 1 mg/kg, % of hepatic blood flow): 8%
AUC ([7]; oral 2 mg/kg): 6.19 µM·h
IC50 [8]: > 10 µM
IC50 [9]: > 10 µM
IC50 [10]: > 10 µM
GI50 [11]: 2.89 µM
IC50 [12]: > 10 µM
inhibition at 0.1 µM [13]: 11%
inhibition at 0.1 µM [14]: 1%
inhibition at 0.1 µM [15]: 9%
inhibition at 0.1 µM [16]: -1%
inhibition at 0.1 µM [17]: 0%
inhibition at 0.1 µM [18]: -5%
inhibition at 0.1 µM [19]: -3%
inhibition at 0.1 µM [20]: 0%
inhibition at 0.1 µM [21]: 3%
inhibition at 0.1 µM [22]: 2%
inhibition at 0.1 µM [23]: 3%
inhibition at 0.1 µM [24]: 2%
inhibition at 0.1 µM [25]: -4%
inhibition at 0.1 µM [26]: -17%
inhibition at 0.1 µM [27]: -3%
inhibition at 0.1 µM [28]: 5%
inhibition at 0.1 µM [29]: 0%
inhibition at 0.1 µM [30]: 2%
inhibition at 0.1 µM [31]: 3%
inhibition at 0.1 µM [32]: -2%
inhibition at 0.1 µM [33]: -1%
inhibition at 0.1 µM [34]: -1%
inhibition at 0.1 µM [35]: 17%
